Bases are written 5' to 3'; sugars and linkages follow in the same order, as letters with counts (s phosphorothioate, o phosphodiester; PS: all linkages phosphorothioate). The collection does not say whether C is 5-methylated. l = locked nucleic acid (LNA); d = 2'-deoxy (DNA)
Each sequence was assayed against Tau (assay: rat primary cortical neurons, FLIPR, 25 uM ASO).

Compared with “AAAAAGTCCATTCCCTC (sugars l3 d10 l4, PS)”, “AAAACATTCTCACCAAACCC (sugars l4 d14 l2, PS)” is higher in calcium oscillation score: 64 % of control for the first, 83.5 % of control for the second.

Compared with “AAAAGTCCATTCCCTCC (sugars l2 d12 l3, PS)”, “AAAATACTCCTCCCTTA (sugars l3 d10 l4, PS)” is higher in calcium oscillation score: 64 % of control for the first, 67.1 % of control for the second.

Going from “AAAATATCCTTACCATCC (sugars l4 d10 l4, PS)” to “AAAATATCCTTACCATCCT (sugars l2 d13 l4, PS)”, the calcium oscillation score rises from 70.2 % of control to 73.9 % of control.

First: AAAATATCCTTACCATCCTA (sugars l3 d14 l3, PS)
Second: AAAATCCTTAATTTAACCAC (sugars l4 d12 l4, PS)
The calcium oscillation score of the first is higher: 75.5 % of control for the first, 64 % of control for the second.

First: AAACAGGATACAGT (sugars l3 d8 l3, PS)
Second: AAACATCTAAACACCTCAAT (sugars l4 d12 l4, PS)
The calcium oscillation score of the first is higher: 109 % of control for the first, 78.9 % of control for the second.

Going from “AAACCAACTCAACATTACCC (sugars l3 d15 l2, PS)” to AAACCATGATCTTAGG (sugars l3 d10 l3, PS), the calcium oscillation score falls from 94.3 % of control to 81.3 % of control.

Compared with “AAACTCATTTACCAATTAT (sugars l4 d11 l4, PS)”, “AAACTCATTTACCAATTATC (sugars l4 d12 l4, PS)” is lower in calcium oscillation score: 70.7 % of control for the first, 56.8 % of control for the second.

Going from AAACTTTTACTCTGACT (sugars l4 d9 l4, PS) to “AAAGATGAAATTTGCTCTTA (sugars l3 d14 l3, PS)”, the calcium oscillation score rises from 59.4 % of control to 145 % of control.

Compared with “AAAGCAGGTTAAGTGATTAA (sugars l3 d14 l3, PS)”, AAAGTACTATCCACTT (sugars l4 d8 l4, PS) is higher in calcium oscillation score: 2.59 % of control for the first, 79.1 % of control for the second.

Compared with “AAATATCCTTACCATCCTAT (sugars l2 d15 l3, PS)”, “AAATCAATTCTCATTTCAAC (sugars l4 d12 l4, PS)” is lower in calcium oscillation score: 78.8 % of control for the first, 58.2 % of control for the second.

Going from “AAATCCCTCTACTCCAG (sugars l2 d12 l3, PS)” to “AAATCCTTAATTTAACCACA (sugars l4 d12 l4, PS)”, the calcium oscillation score rises from 51.4 % of control to 63.1 % of control.

Compared with “AACAAACAAAAATCCCCTA (sugars l4 d11 l4, PS)”, “AACAAACATCTAAACACCTC (sugars l3 d13 l4, PS)” is lower in calcium oscillation score: 85.7 % of control for the first, 75.1 % of control for the second.

First: AACACCTTTTAATTCATT (sugars l4 d10 l4, PS)
Second: AACAGGAGAGCCATTTCCCA (sugars l3 d14 l3, PS)
The calcium oscillation score of the first is higher: 74.8 % of control for the first, 57.1 % of control for the second.

Going from “AACATATATATTACACTTC (sugars l4 d11 l4, PS)” to AACATCACCAGCCTTC (sugars l3 d9 l4, PS), the calcium oscillation score falls from 111 % of control to 50.7 % of control.

Compared with AACATCATGTCACACA (sugars l4 d8 l4, PS), AACATCATGTCACACAC (sugars l4 d9 l4, PS) is lower in calcium oscillation score: 56.3 % of control for the first, 39 % of control for the second.

First: AACATCTAAACACCTCAA (sugars l4 d10 l4, PS)
Second: AACATCTAAACACCTCAATC (sugars l4 d12 l4, PS)
The calcium oscillation score of the first is higher: 78.9 % of control for the first, 77.6 % of control for the second.

Going from “AACATTCTCACCAAACCCA (sugars l3 d14 l2, PS)” to “AACCAACTCAACATTACCCT (sugars l2 d16 l2, PS)”, the calcium oscillation score rises from 78.4 % of control to 86.7 % of control.

First: AACCAACTTTCATCTACT (sugars l4 d11 l3, PS)
Second: AACCAACTTTCATCTACTTT (sugars l4 d14 l2, PS)
The calcium oscillation score of the first is higher: 73.5 % of control for the first, 63 % of control for the second.

Compared with AACCAATTAACCGAAC (sugars l3 d10 l3, PS), “AACCAATTAACCGAACTGCG (sugars l3 d14 l3, PS)” is lower in calcium oscillation score: 138 % of control for the first, 18.1 % of control for the second.

Going from AACCACTCTAACATCTT (sugars l4 d9 l4, PS) to “AACCACTCTAACATCTTA (sugars l4 d11 l3, PS)”, the calcium oscillation score falls from 88.3 % of control to 86.8 % of control.

Going from “AACCACTCTTATTCTTTAA (sugars l4 d11 l4, PS)” to “AACCACTCTTATTCTTTAAA (sugars l4 d12 l4, PS)”, the calcium oscillation score rises from 77.1 % of control to 91.3 % of control.

First: AACCAGCTAGTGGTGCCACC (sugars l3 d14 l3, PS)
Second: AACCATTAACTGCCTAT (sugars l4 d10 l3, PS)
The calcium oscillation score of the first is lower: 33 % of control for the first, 53 % of control for the second.

First: AACCCCATAGACATAA (sugars l4 d8 l4, PS)
Second: AACCCCTTCAACATCAGC (sugars l2 d12 l4, PS)
The calcium oscillation score of the first is higher: 78.6 % of control for the first, 64.9 % of control for the second.

First: AACCGTTTTCTTACCAC (sugars l2 d11 l4, PS)
Second: AACGCACCAGGAACCTTCCA (sugars l3 d14 l3, PS)
The calcium oscillation score of the first is higher: 60.1 % of control for the first, 51.4 % of control for the second.

Compared with AACTAAATTTACCTCA (sugars l4 d8 l4, PS), “AACTCAAATCAATTCTCATT (sugars l4 d12 l4, PS)” is lower in calcium oscillation score: 88.1 % of control for the first, 73.2 % of control for the second.

First: AACTCATCAACACCTTTTAA (sugars l3 d13 l4, PS)
Second: AACTCATTTACCAATTATCT (sugars l4 d13 l3, PS)
The calcium oscillation score of the first is higher: 70.8 % of control for the first, 67.3 % of control for the second.

Compared with “AACTCTAAGTAGACCCTGGC (sugars l3 d14 l3, PS)”, “AACTGATTCCATCACCA (sugars l3 d11 l3, PS)” is higher in calcium oscillation score: 14.3 % of control for the first, 69.7 % of control for the second.

Compared with AACTGCGAGGAGCAGC (sugars l3 d10 l3, PS), AACTGGTTAGCCCTAA (sugars l3 d10 l3, PS) is higher in calcium oscillation score: 25.9 % of control for the first, 31.3 % of control for the second.

AACTGGTTTGTAGACT (sugars l3 d10 l3, PS) and “AACTGGTTTGTAGACTATTT (sugars l3 d14 l3, PS)” are the same in calcium oscillation score: 0 % of control for the first, 0 % of control for the second.

First: AACTTACCAGTTTTTCA (sugars l4 d9 l4, PS)
Second: AACTTCTAATTTAGTC (sugars l4 d8 l4, PS)
The calcium oscillation score of the first is lower: 62.3 % of control for the first, 81.9 % of control for the second.

Going from “AACTTCTAGTTATACAGTTG (sugars l3 d14 l3, PS)” to AACTTTTACTCTGACTA (sugars l4 d9 l4, PS), the calcium oscillation score rises from 26.2 % of control to 51.9 % of control.

Compared with “AAGACCAAGCAGAGATAAAC (sugars l3 d14 l3, PS)”, AAGAGGCACAAGTCCT (sugars l3 d10 l3, PS) is higher in calcium oscillation score: 16.7 % of control for the first, 81.6 % of control for the second.

First: AAGAGGGCAGCAGGCC (sugars l3 d10 l3, PS)
Second: AAGAGTCACTGCACTGCATT (sugars l3 d14 l3, PS)
The calcium oscillation score of the first is higher: 73.1 % of control for the first, 30.9 % of control for the second.

Compared with AAGATACATGCGTCCT (sugars l3 d10 l3, PS), AAGATGAAATTTGCTC (sugars l3 d10 l3, PS) is higher in calcium oscillation score: 112 % of control for the first, ≥ 200 % of control for the second.

First: AAGCAATAGCAAACA (sugars l3 d9 l3, PS)
Second: AAGCAGGTTAAGTGATTAAC (sugars l3 d14 l3, PS)
The calcium oscillation score of the first is higher: 142 % of control for the first, 12.9 % of control for the second.

Going from AAGCATTTCAAGATAC (sugars l3 d10 l3, PS) to “AAGCCCATTTACAATTC (sugars l4 d10 l3, PS)”, the calcium oscillation score rises from 66.7 % of control to 81.1 % of control.

Going from “AAGCTTCCACATTTTAC (sugars l4 d10 l3, PS)” to AAGGTCAGCTTGTGGG (sugars l3 d10 l3, PS), the calcium oscillation score falls from 68.4 % of control to 11.4 % of control.

First: AAGTCCCGAGCCAAA (sugars l3 d9 l3, PS)
Second: AAGTCCCGAGCCAAAG (sugars l3 d10 l3, PS)
The calcium oscillation score of the first is higher: 102 % of control for the first, 91.8 % of control for the second.

Compared with “AAGTCCCGAGCCAAAGCCGA (sugars l3 d14 l3, PS)”, “AAGTGATTAACCAATTAACC (sugars l3 d14 l3, PS)” is higher in calcium oscillation score: 0 % of control for the first, 57 % of control for the second.

Reference: the OligoGym collection
